# ChEMBL document CHEMBL1201862, “PubChem BioAssay data set” (2004)
#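 Grown in 96-well plates, cells were treated for 48 hours with each compound at five concentrations. Insufficient inhibition: endpoint recorded as highest concentration tested. GI50 marks 50% less growth.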 The source made the active and inactive calls. Rule as the data show it: active = GI50 up to about 1.1 µM and inactive = higher.
# Legend:
# Assay in all cases: NCI-60 cell line screen, 48 h
# [1] = system: K562
# [2] = system: M14
# [3] = system: OVCAR-8
# [4] = system: HOP-62
# [5] = system: ACHN
# [6] = system: 786-0
# [7] = system: SN12C
# [8] = system: UACC-257
# [9] = system: CCRF-CEM
# [10] = system: HCC 2998
# [11] = system: NCI-H522
# [12] = system: SK-MEL-5
# [13] = system: NCI-H226
# [14] = system: SF-295
# [15] = system: UACC-62
# [16] = system: A498
# [17] = system: BT-549
# [18] = system: HOP-92
# [19] = system: MDA-MB-435
# [20] = system: U-251
# [21] = system: MOLT-4
# [22] = system: Malme-3M
# [23] = system: DU-145
# [24] = system: PC-3
# [25] = system: EKVX
# [26] = system: T47D
# [27] = system: OVCAR-4
# [28] = system: LOX IMVI
# [29] = system: SNB-19
# [30] = system: SF-539
# [31] = system: COLO 205
# [32] = system: CAKI-1
# [33] = system: MCF7
# [34] = system: SK-MEL-2
# [35] = system: UO-31
# [36] = system: A549
# [37] = system: MDA-N
# [38] = system: IGROV-1
# [39] = system: NCI-H23
# [40] = system: KM12
# [41] = system: OVCAR-5
# [42] = system: HT-29
# [43] = system: SK-OV-3
# [44] = system: SF-268
# [45] = system: SK-MEL-28
# [46] = system: RXF 393
# [47] = system: NCI/ADR-RES
# [48] = system: MDA-MB-231
# [49] = system: HCT-116
# [50] = system: NCI-H460
# [51] = system: SNB-75
# [52] = system: OVCAR-3
# [53] = system: SW-620
# [54] = system: Hs-578T
# [55] = system: TK-10
# [56] = system: HCT-15
# [57] = system: HL-60
# [58] = system: RPMI-8226
smiles,measurement,setting,value
C/C1=C\[C@H](C)C[C@H](C)OC(=O)[C@H](C)NC(=O)[C@@H](Cc2ccc(O)c(Br)c2)N(C)C(=O)[C@H](C)NC(=O)[C@@H](C)C1,GI50,[1],0.0836 µM (active)
same,GI50,[2],0.118 µM (active)
same,GI50,[3],0.147 µM (active)
same,GI50,[4],0.0139 µM (active)
same,GI50,[5],0.0326 µM (active)
same,GI50,[6],0.00752 µM (active)
same,GI50,[7],0.401 µM (active)
same,GI50,[8],0.0927 µM (active)
same,GI50,[9],0.0124 µM (active)
same,GI50,[10],0.00408 µM (active)
same,GI50,[11],0.0149 µM (active)
same,GI50,[12],0.0127 µM (active)
same,GI50,[13],0.0505 µM (active)
same,GI50,[14],0.0578 µM (active)
same,GI50,[15],0.146 µM (active)
same,GI50,[16],0.0149 µM (active)
same,GI50,[17],0.132 µM (active)
same,GI50,[18],0.0533 µM (active)
same,GI50,[19],0.0735 µM (active)
same,GI50,[20],0.00991 µM (active)
same,GI50,[21],0.3 µM (active)
same,GI50,[22],0.0708 µM (active)
same,GI50,[23],0.155 µM (active)
same,GI50,[24],0.0335 µM (active)
same,GI50,[25],0.0652 µM (active)
same,GI50,[26],0.282 µM (active)
same,GI50,[27],0.0631 µM (active)
same,GI50,[28],0.00533 µM (active)
same,GI50,[29],0.184 µM (active)
same,GI50,[30],0.053 µM (active)
same,GI50,[31],0.00728 µM (active)
same,GI50,[32],0.0149 µM (active)
same,GI50,[33],0.0479 µM (active)
same,GI50,[34],0.0502 µM (active)
same,GI50,[35],0.0538 µM (active)
same,GI50,[36],0.0646 µM (active)
same,GI50,[37],0.0982 µM (active)
same,GI50,[38],0.0152 µM (active)
same,GI50,[39],0.462 µM (active)
same,GI50,[40],0.731 µM (active)
same,GI50,[41],10.7 µM (inactive)
same,GI50,[42],0.00783 µM (active)
same,GI50,[43],0.0495 µM (active)
same,GI50,[44],0.0331 µM (active)
same,GI50,[45],0.00659 µM (active)
same,GI50,[46],0.0656 µM (active)
same,GI50,[47],0.126 µM (active)
same,GI50,[48],0.0211 µM (active)
same,GI50,[49],0.00382 µM (active)
same,GI50,[50],0.00701 µM (active)
same,GI50,[51],0.0184 µM (active)
same,GI50,[52],0.0179 µM (active)
same,GI50,[53],0.00385 µM (active)
same,GI50,[54],0.094 µM (active)
same,GI50,[55],0.0724 µM (active)
same,GI50,[56],0.982 µM
same,GI50,[57],0.00447 µM (active)
same,GI50,[58],0.0295 µM (active)
COc1ccc2c(CCN)c(C(=O)O)[nH]c2c1,GI50,[1],> 24.5 µM (inactive)
same,GI50,[2],> 100 µM (inactive)
same,GI50,[3],> 100 µM (inactive)
same,GI50,[4],> 100 µM (inactive)
same,GI50,[5],> 100 µM (inactive)
same,GI50,[6],> 100 µM (inactive)
same,GI50,[7],> 100 µM (inactive)
same,GI50,[8],> 100 µM (inactive)
same,GI50,[10],> 100 µM (inactive)
same,GI50,[11],> 100 µM (inactive)
same,GI50,[12],> 100 µM (inactive)
same,GI50,[13],> 100 µM (inactive)
same,GI50,[14],> 100 µM (inactive)
same,GI50,[15],> 100 µM (inactive)
same,GI50,[16],> 100 µM (inactive)
same,GI50,[17],> 100 µM (inactive)
same,GI50,[18],> 100 µM (inactive)
same,GI50,[19],> 100 µM (inactive)
same,GI50,[20],> 100 µM (inactive)
same,GI50,[21],1 µM (active)
same,GI50,[22],> 100 µM (inactive)
same,GI50,[23],> 100 µM (inactive)
same,GI50,[24],> 100 µM (inactive)
same,GI50,[25],> 100 µM (inactive)
same,GI50,[26],> 100 µM (inactive)
same,GI50,[27],> 100 µM (inactive)
same,GI50,[28],> 100 µM (inactive)
same,GI50,[29],> 100 µM (inactive)
same,GI50,[30],> 100 µM (inactive)
same,GI50,[31],> 100 µM (inactive)
same,GI50,[32],> 100 µM (inactive)
same,GI50,[33],> 100 µM (inactive)
same,GI50,[34],> 100 µM (inactive)
same,GI50,[35],> 100 µM (inactive)
same,GI50,[36],> 100 µM (inactive)
same,GI50,[37],> 100 µM (inactive)
same,GI50,[38],> 100 µM (inactive)
same,GI50,[39],> 100 µM (inactive)
same,GI50,[40],> 100 µM (inactive)
same,GI50,[41],> 100 µM (inactive)
same,GI50,[42],> 100 µM (inactive)
same,GI50,[43],> 100 µM (inactive)
same,GI50,[44],> 100 µM (inactive)
same,GI50,[45],> 100 µM (inactive)
same,GI50,[46],> 100 µM (inactive)
same,GI50,[47],> 100 µM (inactive)
same,GI50,[48],> 100 µM (inactive)
same,GI50,[49],> 100 µM (inactive)
same,GI50,[50],> 100 µM (inactive)
same,GI50,[51],> 100 µM (inactive)
same,GI50,[52],> 100 µM (inactive)
same,GI50,[53],> 100 µM (inactive)
same,GI50,[54],> 100 µM (inactive)
same,GI50,[55],> 100 µM (inactive)
same,GI50,[56],> 100 µM
same,GI50,[57],> 100 µM (inactive)
same,GI50,[58],> 100 µM (inactive)
CCOC(=O)/C(C#N)=C/c1ccc2c(-c3c(OCC)ccc4cc(/C=C(\C#N)C(=O)OCC)ccc34)c(OCC)ccc2c1,GI50,[1],> 100 µM (inactive)
same,GI50,[2],15.7 µM (inactive)
same,GI50,[3],> 100 µM (inactive)
same,GI50,[4],> 100 µM (inactive)
same,GI50,[5],> 100 µM (inactive)
same,GI50,[6],> 100 µM (inactive)
same,GI50,[7],> 100 µM (inactive)
same,GI50,[8],> 100 µM (inactive)
same,GI50,[9],> 100 µM (inactive)
same,GI50,[10],> 100 µM (inactive)
same,GI50,[11],> 100 µM (inactive)
same,GI50,[12],> 100 µM (inactive)
same,GI50,[13],> 100 µM (inactive)
same,GI50,[14],> 100 µM (inactive)
same,GI50,[15],> 100 µM (inactive)
same,GI50,[16],> 100 µM (inactive)
same,GI50,[17],> 100 µM (inactive)
same,GI50,[18],> 100 µM (inactive)
same,GI50,[19],> 100 µM (inactive)
same,GI50,[20],> 100 µM (inactive)
same,GI50,[21],> 100 µM (inactive)
same,GI50,[22],> 100 µM (inactive)
same,GI50,[23],> 100 µM (inactive)
same,GI50,[24],> 100 µM (inactive)
same,GI50,[25],> 100 µM (inactive)
same,GI50,[26],> 100 µM (inactive)
same,GI50,[27],> 100 µM (inactive)
same,GI50,[28],> 100 µM (inactive)
same,GI50,[29],> 100 µM (inactive)
same,GI50,[31],> 100 µM (inactive)
same,GI50,[32],> 100 µM (inactive)
same,GI50,[33],> 100 µM (inactive)
same,GI50,[34],> 100 µM (inactive)
same,GI50,[35],> 100 µM (inactive)
same,GI50,[36],> 100 µM (inactive)
same,GI50,[37],> 100 µM (inactive)
same,GI50,[38],> 100 µM (inactive)
same,GI50,[39],> 100 µM (inactive)
same,GI50,[40],> 100 µM (inactive)
same,GI50,[41],> 100 µM (inactive)
same,GI50,[42],> 100 µM (inactive)
same,GI50,[43],> 100 µM (inactive)
same,GI50,[44],> 100 µM (inactive)
same,GI50,[45],> 100 µM (inactive)
same,GI50,[46],> 100 µM (inactive)
same,GI50,[47],> 100 µM (inactive)
same,GI50,[48],18.5 µM (inactive)
same,GI50,[49],> 100 µM (inactive)
same,GI50,[50],> 100 µM (inactive)
same,GI50,[51],> 100 µM (inactive)
same,GI50,[52],> 100 µM (inactive)
same,GI50,[53],> 100 µM (inactive)
same,GI50,[54],> 100 µM (inactive)
same,GI50,[55],> 100 µM (inactive)
same,GI50,[56],> 100 µM
same,GI50,[57],> 100 µM (inactive)
same,GI50,[58],> 100 µM (inactive)
